Molecular target: delta opioid receptor (DOR), murine, wild-type (Mus musculus, UniProt P32300)
Assay: [3H]naltrindole radioligand binding
Conditions: labelled compound; HEK293 DOR clone; no affinity constant printed

Sequence of delta opioid receptor (DOR), murine, wild-type (P32300 whole entry): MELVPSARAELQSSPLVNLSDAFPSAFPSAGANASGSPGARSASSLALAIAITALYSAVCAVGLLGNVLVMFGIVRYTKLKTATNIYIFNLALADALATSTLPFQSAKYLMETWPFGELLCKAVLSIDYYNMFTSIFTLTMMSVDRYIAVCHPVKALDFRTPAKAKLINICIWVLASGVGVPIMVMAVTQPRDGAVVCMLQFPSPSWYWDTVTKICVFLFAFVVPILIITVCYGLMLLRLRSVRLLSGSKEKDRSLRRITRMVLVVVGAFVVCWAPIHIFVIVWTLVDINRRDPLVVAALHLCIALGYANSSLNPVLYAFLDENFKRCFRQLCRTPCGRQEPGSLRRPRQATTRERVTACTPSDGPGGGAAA

Structure (SMILES): Oc1ccc2c3c1O[C@H]1c4[nH]c5ccccc5c4C[C@@]4(O)[C@@H](C2)N(CC2CC2)CC[C@]314 [[3H]naltrindole]
- [3H]naltrindole radioligand binding: Receptor expression levels in DOR clones was assessed by means of [^3H]Naltrindole binding

From publication PMC3823043 (Journal of Cellular and Molecular Medicine, 2008)
